Measured values as given in ChEMBL document CHEMBL4000244, “Probing A-form DNA: A fluorescent aminosugar probe and dual recognition by anthraquinone-neomycin conjugates” (Bioorg Med Chem, 2017).
Calls of active or inactive are those of the source. The rule behind the calls is not given here.

Experiments:
[1] = Binding affinity to 5'-GCCCGCCC-3' DNA hairpin assessed as change in fluorescence intensity at 1 uM after 45 mins by fluorescence quenching analysis relative to control
[2] = Binding affinity to 5'-GGCCGCGG-3' DNA hairpin assessed as change in fluorescence intensity at 1 uM after 45 mins by fluorescence quenching analysis relative to control
[3] = Binding affinity to 5'-CGGGCGCG-3' DNA hairpin assessed as change in fluorescence intensity at 1 uM after 45 mins by fluorescence quenching analysis relative to control
[4] = Binding affinity to 5'-CGGGGGGG-3' DNA hairpin assessed as change in fluorescence intensity at 1 uM after 45 mins by fluorescence quenching analysis relative to control
[5] = Binding affinity to 5'-GCGCCCCC-3' DNA hairpin assessed as change in fluorescence intensity at 1 uM after 45 mins by fluorescence quenching analysis relative to control
[6] = Binding affinity to 5'-GCGCGGGC-3' DNA hairpin assessed as change in fluorescence intensity at 1 uM after 45 mins by fluorescence quenching analysis relative to control
[7] = Binding affinity to 5'-CCCGCGGG-3' DNA hairpin assessed as change in fluorescence intensity at 1 uM after 45 mins by fluorescence quenching analysis relative to control
[8] = Binding affinity to 5'-GCGCGCGG-3' DNA hairpin assessed as change in fluorescence intensity at 1 uM after 45 mins by fluorescence quenching analysis relative to control
[9] = Binding affinity to 5'-GGGGCCCG-3' DNA hairpin assessed as change in fluorescence intensity at 1 uM after 45 mins by fluorescence quenching analysis relative to control
[10] = Binding affinity to 5'-GCGGCCGG-3' DNA hairpin assessed as change in fluorescence intensity at 1 uM after 45 mins by fluorescence quenching analysis relative to control
[11] = Binding affinity to 5'-GGGGGCGG-3' DNA hairpin assessed as change in fluorescence intensity at 1 uM after 45 mins by fluorescence quenching analysis relative to control
[12] = Binding affinity to 5'-CCCCCCCC-3' DNA hairpin assessed as change in fluorescence intensity at 1 uM after 45 mins by fluorescence quenching analysis relative to control
[13] = Binding affinity to 5'-GCGCCCGC-3' DNA hairpin assessed as change in fluorescence intensity at 1 uM after 45 mins by fluorescence quenching analysis relative to control
[14] = Binding affinity to 5'-GCGGGCCG-3' DNA hairpin assessed as change in fluorescence intensity at 1 uM after 45 mins by fluorescence quenching analysis relative to control
[15] = Binding affinity to 5'-GCGCCCGG-3' DNA hairpin assessed as change in fluorescence intensity at 1 uM after 45 mins by fluorescence quenching analysis relative to control
[16] = Binding affinity to 5'-CCGCCCGC-3' DNA hairpin assessed as change in fluorescence intensity at 1 uM after 45 mins by fluorescence quenching analysis relative to control
[17] = Binding affinity to 5'-CGCGCGGG-3' DNA hairpin assessed as change in fluorescence intensity at 1 uM after 45 mins by fluorescence quenching analysis relative to control
[18] = Binding affinity to 5'-GCGGCCCG-3' DNA hairpin assessed as change in fluorescence intensity at 1 uM after 45 mins by fluorescence quenching analysis relative to control
[19] = Binding affinity to 5'-CCGGGCCG-3' DNA hairpin assessed as change in fluorescence intensity at 1 uM after 45 mins by fluorescence quenching analysis relative to control
[20] = Binding affinity to 5'-CCCGCCCG-3' DNA hairpin assessed as change in fluorescence intensity at 1 uM after 45 mins by fluorescence quenching analysis relative to control
[21] = Binding affinity to d(G4C4)2 DNA major groove assessed as stabilization of A-from DNA conformation by measuring induction of sharper band at 265 nanometer at drug:DNA molar ratio of 1:1 after 30 mins by CD spectroscopic method
[22] = Binding affinity to 5'-GCGCCGGC-3' DNA hairpin assessed as change in fluorescence intensity at 1 uM after 45 mins by fluorescence quenching analysis relative to control
[23] = Binding affinity to 5'-CCCCCGCG-3' DNA hairpin assessed as change in fluorescence intensity at 1 uM after 45 mins by fluorescence quenching analysis relative to control
[24] = Binding affinity to 5'-CCGCGGCC-3' DNA hairpin assessed as change in fluorescence intensity at 1 uM after 45 mins by fluorescence quenching analysis relative to control
[25] = Binding affinity to 5'-CCCCGGCG-3' DNA hairpin assessed as change in fluorescence intensity at 1 uM after 45 mins by fluorescence quenching analysis relative to control
[26] = Binding affinity to 5'-CGCGGCCC-3' DNA hairpin assessed as change in fluorescence intensity at 1 uM after 45 mins by fluorescence quenching analysis relative to control
[27] = Binding affinity to 5'-CCGCCCGG-3' DNA hairpin assessed as change in fluorescence intensity at 1 uM after 45 mins by fluorescence quenching analysis relative to control
[28] = Binding affinity to 5'-GCGCCGCC-3' DNA hairpin assessed as change in fluorescence intensity at 1 uM after 45 mins by fluorescence quenching analysis relative to control
[29] = Binding affinity to 5'-GGCGCCCC-3' DNA hairpin assessed as change in fluorescence intensity at 1 uM after 45 mins by fluorescence quenching analysis relative to control
[30] = Binding affinity to 5'-GGGCGCGG-3' DNA hairpin assessed as change in fluorescence intensity at 1 uM after 45 mins by fluorescence quenching analysis relative to control
[31] = Binding affinity to 5'-GCCCGGGG-3' DNA hairpin assessed as change in fluorescence intensity at 1 uM after 45 mins by fluorescence quenching analysis relative to control
[32] = Binding affinity to 5'-GCCCCCCC-3' DNA hairpin assessed as change in fluorescence intensity at 1 uM after 45 mins by fluorescence quenching analysis relative to control
[33] = Binding affinity to 5'-CGCGGGGC-3' DNA hairpin assessed as change in fluorescence intensity at 1 uM after 45 mins by fluorescence quenching analysis relative to control
[34] = Binding affinity to 5'-CCCGCGCG-3' DNA hairpin assessed as change in fluorescence intensity at 1 uM after 45 mins by fluorescence quenching analysis relative to control
[35] = Binding affinity to 5'-CCCGGCCC-3' DNA hairpin assessed as change in fluorescence intensity at 1 uM after 45 mins by fluorescence quenching analysis relative to control
[36] = Binding affinity to 5'-GCCGCCGG-3' DNA hairpin assessed as change in fluorescence intensity at 1 uM after 45 mins by fluorescence quenching analysis relative to control

`NCC1O[C@H](O[C@H]2[C@@H](O)[C@H](O[C@@H]3[C@@H](O)[C@H](N)C[C@H](N)[C@H]3O[C@H]3O[C@H](CN)[C@@H](O)[C@H](O)[C@H]3N)O[C@@H]2CSCCNC(=O)CCSCC(=O)Nc2ccc(-c3c4ccc(=O)cc-4oc4cc(O)ccc34)c(C(=O)O)c2)[C@H](N)[C@@H](O)[C@@H]1O` (stereo partly specified) gave an Activity [1] of 47.8%, an Activity [2] of 49.8% and an Activity [3] of 48.7%. For the same compound, the Activity [4] was 35.9%, the Activity [5] was 45.7% and the Activity [6] was 51.8%. For the same compound, the Activity [7] was 40.3%, the Activity [8] was 51.2% and the Activity [9] was 29.7%. For the same compound, the Activity [10] was 40.9%, the Activity [11] was 38.3% and the Activity [12] was 15%. It also gave an Activity [13] of 50.3%, an Activity [14] of 40.9% and an Activity [15] of 49.3%. It also gave an Activity [16] of 48.7%, an Activity [17] of 49.9% and an Activity [18] of 52.5%. For the same compound, the Activity [19] was 40.2%, the Activity [20] was 46.5% and the Activity [21] was “Active”. The Activity [22] was 55.1%, the Activity [23] was 35.4% and the Activity [24] was 50.6%. For the same compound, the Activity [25] was 50%, the Activity [26] was 44.6% and the Activity [27] was 56.8%. For the same compound, the Activity [28] was 50.4%, the Activity [29] was 37.8% and the Activity [30] was 51.5%. It also gave an Activity [31] of 38.8%, an Activity [32] of 10.1% and an Activity [33] of 48.3%. For the same compound, the Activity [34] was 51.8%, the Activity [35] was 40.8% and the Activity [36] was 54.5%.
